Entries after “also recorded” stand apart in the source; their conditions may differ.

The subject of this experiment is NCI-60 cell lines. It counts as cell-based, human.
For DGVSPLW, the “Cell Line the peptide is associated with (peptide recovered from phage library selection on this NCI-60 cell line)” value is recorded as “TK-10 Renal”.

As for DGVSSDY, the “Cell Line (NCI-60 cell line the peptide is associated with)” value was “COLO-205-Colon”. Regarding DHVSGSV, the “Cell Line the peptide is associated with (peptide recovered from phage library selection on this NCI-60 cell line)” value is listed as “CAIK-1 Renal”.

On to DIALVSP, for which the “Cell Line with which the peptide (and its tripeptide motif) is associated” value (“Cell Line with which the peptide” below) was “A549-Lung”. With DLDGRVV, the “Cell Line (NCI-60 cell line the peptide is associated with)” value is reported as “COLO-205-Colon”. For DLGLRPV, the “Cell Line with which the peptide” value is on record as “Molt-4-Leukemia”. Turning to DLGSVQH, the “Cell Line (NCI-60 cell line the peptide is associated with)” value is “HT-29 Colon”. Regarding DLLRYLA, the “Cell Line with which the peptide” value is “H322-Lung”. For DLRLSFP, the “Cell Line (NCI-60 cell line the peptide and its motif are associated with)” value is “UACC 257 Melanoma”. In the case of DLRRAGS, the “Cell Line (NCI-60 cell line the peptide is associated with)” value is recorded as “SW620-Colon”. As to DLVGRVR, the “Cell Line the peptide is associated with (peptide recovered from phage library selection on this NCI-60 cell line)” value is reported as “BT-549 Breast”.

Take DNCERGV: the “Cell Line (NCI-60 cell line the peptide and its motif are associated with)” value was “UACC62 Melanoma”. Regarding DNDGARG, the “Cell Line (NCI-60 cell line the peptide is associated with)” value is reported as “COLO-205-Colon”. Consider DPRGLRV, for which the “Cell Line with which the peptide” value is given as “HL-60-Leukemia”.

Consider DQQEAGS, for which the “Cell Line (NCI-60 cell line the peptide and its motif are associated with)” value is on record as 786-0 Renal. The same measure, in the same setting: as for DRASSWA, the entry is “A498 Renal”. Consider DRFGSSA, for which the “Cell Line the peptide is associated with (peptide recovered from phage library selection on this NCI-60 cell line)” value is listed as “ACHN Renal”.

With DRGLGMS, the “Cell Line (NCI-60 cell line the peptide and its motif are associated with)” value is listed as 786-0 Renal. In the case of DRGVPGL, the “Cell Line with which the peptide” value is given as “HL-60-Leukemia”. On to DRQLAGR, for which the “Cell Line the peptide is associated with (peptide recovered from phage library selection on this NCI-60 cell line)” value is on record as “HS 578 T Breast”. Turning to DRYMLRS, the “Cell Line with which the peptide” value is “H460-Lung”. On to DSGLVGG, for which the “Cell Line (NCI-60 cell line the peptide is associated with)” value is recorded as “LOX-IMVI Melanoma”.

As for DTLASLR, the “Cell Line (NCI-60 cell line the peptide is associated with)” value was “HT-29 Colon”.

As to DTLRSQW, the “Cell Line (NCI-60 cell line the peptide is associated with)” value is recorded as “HCT-15 Colon”. Regarding DTPAGRL, the “Cell Line the peptide is associated with (peptide recovered from phage library selection on this NCI-60 cell line)” value was “MDA-MB-231 Breast”. As for DTPSAVS, the “Cell Line (NCI-60 cell line the peptide is associated with)” value was “SF-268 CNS”. On to DVETRGS, for which the “Cell Line with which the peptide” value is “CCRF-CEM Leukemia”.

With DVHARGD, the “Cell Line the peptide is associated with (peptide recovered from phage library selection on this NCI-60 cell line)” value is reported as “NCI/ADR-RES Breast”. On to DVIARGW, for which the “Cell Line (NCI-60 cell line the peptide and its motif are associated with)” value was “UACC 257 Melanoma”.

In the case of DVPGVRF, the “Cell Line with which the peptide” value is recorded as “EKVX-Lung”. The same measure, in the same setting: next, DVRAVSS: “EKVX-Lung”; DVRGRVW: “H460-Lung”. As for DVSGRVP, the “Cell Line with which the peptide” value is given as “HL-60-Leukemia”. Take DVVGVLK: the “Cell Line (NCI-60 cell line the peptide is associated with)” value is on record as “SF-268 CNS”.

In the case of DVWVAVS, the “Cell Line (NCI-60 cell line the peptide and its motif are associated with)” value was “OVCAR-4 Ovarian”.

For the substance DWGRSSF, the “Cell Line with which the peptide” value was “A549-Lung”. As for DWGSRGV, the “Cell Line the peptide is associated with (peptide recovered from phage library selection on this NCI-60 cell line)” value was “MDA-MB-231 Breast”.

As for DWRRRAV, the “Cell Line (NCI-60 cell line the peptide is associated with)” value is “HCT-15 Colon”. The same measure, in the same setting: as for DWVCRAS, the entry is “HT-29 Colon”. As for DWVGVLM, the “Cell Line (NCI-60 cell line the peptide and its motif are associated with)” value is on record as “UACC62 Melanoma”. As to DWWAGVR, the “Cell Line with which the peptide” value is on record as “CCRF-CEM Leukemia”. Take DYVGAGT: the “Cell Line (NCI-60 cell line the peptide and its motif are associated with)” value was “DU-145 Prostate”. On to EADPGAV, for which the “Cell Line (NCI-60 cell line the peptide and its motif are associated with)” value is “UACC 257 Melanoma”.

With EAGPRGV, the “Cell Line the peptide is associated with (peptide recovered from phage library selection on this NCI-60 cell line)” value is “BT-549 Breast”.

With EAGVRLN, the “Cell Line (NCI-60 cell line the peptide and its motif are associated with)” value was “OVCAR-4 Ovarian”. Take EAVSGRR: the “Cell Line the peptide is associated with (peptide recovered from phage library selection on this NCI-60 cell line)” value is on record as “HS 578 T Breast”. With EAVSRGS, the “Cell Line with which the peptide” value was “K-562-Leukemia”. The same measure, in the same setting: next, EFAVAGR: “SR Leukemia”; EFTRRAS: “A549-Lung”. For the substance EGARASD, the “Cell Line with which the peptide” value is recorded as “Hop-92-Lung”.

Consider EGGRTHW, for which the “Cell Line (NCI-60 cell line the peptide is associated with)” value is “HT-29 Colon”. Consider EGLVSVV, for which the “Cell Line with which the peptide” value is recorded as “Molt-4-Leukemia”.

Take EGLVVFE: the “Cell Line (NCI-60 cell line the peptide is associated with)” value is “SNB-19 CNS; also recorded: SF-539 CNS”.

Turning to EGRLMLA, the “Cell Line (NCI-60 cell line the peptide and its motif are associated with)” value is on record as “MALME-3M Melanoma”. On to EGSGVDC, for which the “Cell Line with which the peptide” value was “RPMI-8226-Leukemia”. In the case of EGSVDAH, the “Cell Line (NCI-60 cell line the peptide is associated with)” value was “SW620-Colon”. On to EGTSGSV, for which the “Cell Line (NCI-60 cell line the peptide is associated with)” value is given as “KM-12C Colon”. In the case of EGVRGVF, the “Cell Line (NCI-60 cell line the peptide and its motif are associated with)” value is listed as “A498 Renal”; the “Cell Line the peptide is associated with (peptide recovered from phage library selection on this NCI-60 cell line)” value is recorded as “A498 Renal”.

For the substance EHPAGGM, the “Cell Line with which the peptide” value is listed as “A549-Lung”.

On to EHYRLRS, for which the “Cell Line (NCI-60 cell line the peptide is associated with)” value was “HT-29 Colon”. As to ELGLRVP, the “Cell Line (NCI-60 cell line the peptide and its motif are associated with)” value was “OVCAR-8 Ovarian”. As to ELHPRGV, the “Cell Line with which the peptide” value is reported as “K-562-Leukemia”.

As to ELRRLLS, the “Cell Line the peptide is associated with (peptide recovered from phage library selection on this NCI-60 cell line)” value is listed as “TK-10 Renal”. ELWASLG: the “Cell Line (NCI-60 cell line the peptide is associated with)” value is on record as “HT-29 Colon”. As for EMGSSRG, the “Cell Line (NCI-60 cell line the peptide is associated with)” value is given as “HT-29 Colon”. EPDGVRS: the “Cell Line with which the peptide” value is reported as “CCRF-CEM Leukemia”. The same measure, in the same setting: as for EQLSGVR, the entry is “CCRF-CEM Leukemia”; as for ERARGYP, “SR Leukemia”. Same read-out and setting: next, ERASQTA: “K-562-Leukemia”; ERGSPSR: “H460-Lung”. On to ERGVFVY, for which the “Cell Line the peptide is associated with (peptide recovered from phage library selection on this NCI-60 cell line)” value is reported as “T-47D Breast”. Regarding ERVSAAV, the “Cell Line (NCI-60 cell line the peptide and its motif are associated with)” value is reported as “OVCAR-3 Ovarian”. As to ERYYLRS, the “Cell Line the peptide is associated with (peptide recovered from phage library selection on this NCI-60 cell line)” value is “MCF-7 Breast”. For the substance ESARGAL, the “Cell Line (NCI-60 cell line the peptide and its motif are associated with)” value was “OVCAR-4 Ovarian”. As for ESATGVS, the “Cell Line the peptide is associated with (peptide recovered from phage library selection on this NCI-60 cell line)” value is “MDA-MB-231 Breast”. With EVASGLV, the “Cell Line (NCI-60 cell line the peptide and its motif are associated with)” value is listed as “SK-MEL-2 Melanoma”. With EVGGGLT, the “Cell Line with which the peptide” value was “CCRF-CEM Leukemia”. The same measure, in the same setting: next, EVIGSGI: “A549-Lung”; EVLVSGD: “Molt-4-Leukemia”. In the case of EVLWGGR, the “Cell Line (NCI-60 cell line the peptide is associated with)” value was “SF-268 CNS”. On to EVRSRGS, for which the “Cell Line with which the peptide” value is listed as “EKVX-Lung”. Regarding EWHAASG, the “Cell Line (NCI-60 cell line the peptide and its motif are associated with)” value is “SK-MEL-2 Melanoma”.

Turning to FAAGAGS, the “Cell Line (NCI-60 cell line the peptide and its motif are associated with)” value is listed as 786-0 Renal. The same measure, in the same setting: next, FAASGVL: “UACC 257 Melanoma”; FAGAGVR: “SK-OV-3-3 Ovarian”. For the substance FAGGSTD, the “Cell Line with which the peptide” value was “HL-60-Leukemia”. Consider FAGRAPR, for which the “Cell Line the peptide is associated with (peptide recovered from phage library selection on this NCI-60 cell line)” value was “ACHN Renal”. On to FAGRVPS, for which the “Cell Line with which the peptide” value is listed as “RPMI-8226-Leukemia”. As for FAGYGVL, the “Cell Line (NCI-60 cell line the peptide is associated with)” value is on record as “SNB-19 CNS; also recorded: SF-539 CNS”. In the case of FAQRRVS, the “Cell Line the peptide is associated with (peptide recovered from phage library selection on this NCI-60 cell line)” value is listed as “SN12C Renal”. In the case of FAWGGRG, the “Cell Line with which the peptide” value was “K-562-Leukemia”. The same measure, in the same setting: next, FDARGGL: “CCRF-CEM Leukemia”. For FDPGGLR, the “Cell Line the peptide is associated with (peptide recovered from phage library selection on this NCI-60 cell line)” value was “SN12C Renal”. Consider FDRAVAN, for which the “Cell Line with which the peptide” value is on record as “Hop-62-Lung”. With FDRGSLT, the “Cell Line (NCI-60 cell line the peptide is associated with)” value was “SF-295 CNS”. For FDRGVEA, the “Cell Line with which the peptide” value is given as “K-562-Leukemia”. Regarding FEDLLSL, the “Cell Line (NCI-60 cell line the peptide is associated with)” value is on record as “MALME-3M Melanoma”. For FEGGRSG, the “Cell Line (NCI-60 cell line the peptide and its motif are associated with)” value was “M14 Melanoma”.

FFGGSRA: the “Cell Line with which the peptide” value is on record as “K-562-Leukemia”. On the same count and under the same terms, as for FFGRVGI, the entry is “Molt-4-Leukemia”; as for FFPAGGP, “EKVX-Lung”. As for FGGRSLS, the “Cell Line (NCI-60 cell line the peptide is associated with)” value is “SNB-75 CNS”. On the same count and under the same terms, next, FGGSGRG: “LOX-IMVI Melanoma”. Regarding FGGSGVL, the “Cell Line with which the peptide” value is reported as “H460-Lung”.

Consider FGGSMAP, for which the “Cell Line (NCI-60 cell line the peptide and its motif are associated with)” value is recorded as “SK-MEL-2 Melanoma”. The same measure, in the same setting: next, FGIGRGV: “SK-MEL-5 Melanoma”. Consider FGLGSSR, for which the “Cell Line with which the peptide” value is given as “Hop-62-Lung”. Turning to FGLRMSN, the “Cell Line the peptide is associated with (peptide recovered from phage library selection on this NCI-60 cell line)” value was “ACHN Renal”. On to FGLRNSR, for which the “Cell Line with which the peptide” value was “HL-60-Leukemia”. The same measure, in the same setting: next, FGLRSRL: “SR Leukemia”. For the substance FGRLLSP, the “Cell Line (NCI-60 cell line the peptide and its motif are associated with)” value was “UACC62 Melanoma”.

For FGSSNRS, the “Cell Line (NCI-60 cell line the peptide is associated with)” value is given as “SF-268 CNS”. Turning to FGVLFRS, the “Cell Line with which the peptide” value is on record as “EKVX-Lung”.

With FGVSGGS, the “Cell Line the peptide is associated with (peptide recovered from phage library selection on this NCI-60 cell line)” value is recorded as “MDA-MB-231 Breast”.

The values are drawn from patent US7781565B2 (priority 2006, dated 2010).
